Laboratory results as given in patent US20200315996A1 (Board of Trustees, Southern Illinois University, priority 2016, published 2020).

What was measured:
[1] = tested on: MKI67 (Ki67); assay: Immunohistochemistry of endometriotic lesions, MKI67 (cell proliferation); format: in vivo, mice; conditions: 3 weeks; for % of MKI67 positive cells/total cells/0.007 mm^2, Stroma: control 13.8 ± 1.4
Description: (§1) The presence and location of different proteins in the tissues obtained from the recipient mice. Samples of uterine tissue were isolated from the recipient mice, fixed by standard histological methods, and embedded in paraffin. Thin sections (5 μm) of the paraffin-embedded tissues were screened with standard immunohistochemical methods using antibodies to identify the expression of in the uterine tissues.
(§2) Primary antibodies that recognized MKI67 (Ki67), PECAM1 (CD31), ESR1, PGR, p-CHUK (IKK), p-STAT3, NOS2 (iNOS) and PTGS2 (COX2), and Vectastain Elite ABC Kit (# PK-6101), Mouse on Mouse Basic Kit (# BMK-2202, Vector laboratories) or DyLight-conjugated secondary antibody (#711-516-152, Jackson ImmunoResearch Lab) were used to show the presence of the proteins in the tissues, which were examined under microscopes.
(§3) The primary antibodies used in these analyses were: anti-MKI67 (Ki67, 1:200 dilution, 550609, BD Biosciences), anti-PECAM1 (CD31, 1:100 dilution, ab28364, Abcam), anti-ESR1 (1:100 dilution, sc-542, Santa Cruz Biotechnology), anti-PGR (1:200 dilution, RB-9017-P0, Thermo Scientific), anti-p-CHUK (IKK, 1:150 dilution, 2697, Cell Signaling Technology), anti-p-STAT3 (1:50 dilution, 9145, Cell Signaling Technology), anti-NOS2 (iNOS, 1:50 dilution, 610333, BD Biosciences) and anti-PTGS2 (COX2, 1:50 dilution, RM-9121, Thermo Scientific).
(§4) The expression of MKI67, ESR1, PGR, p-CHUK, p-STAT3, NOS2 and PTGS2 proteins in uterine tissues, as determined by immunohistochemical analysis of uterine tissue sections, was semiquantitatively analyzed. Levels of apoptosis were analyzed by TUNEL assay and also semiquantitatively analyzed. Histological sections were obtained from 4 different lesions. For each section, three different areas measuring 0.007 mm^2 were chosen. In each of those areas, the total number of epithelial or stromal cells was counted, as was the number of cells that tested positive for expressing MKI67 (a marker of cellular proliferation), steroid receptors ESR1 and PGR, and inflammatory signaling molecules p-CHUK, p-STAT3, NOS2 and PTGS2 proteins.

[2] = tested on: endometriotic lesions; assay: Endometriotic lesions examined on PND 21 (Study 2); format: in vivo, mice; conditions: 200 mg/kg b.w./day; examined 3 weeks after the final dosage
Method: The sham surgery was performed following the same steps as the endometriosis surgery except that no donor tissues were implanted onto the peritoneal walls of those mice; only sutures were applied to the peritoneal walls. […] The recipient mice continued receiving oral daily niclosamide treatments until mouse pups were born, after which niclosamide treatment was discontinued. Three weeks after the pups were born, on postnatal day (PND) 21, the recipient mice were necropsied and the pups were weaned. For each mated mouse, the following parameters were measured and recorded: the time of the formation of the vaginal plug after mating (days); the length of time that the mated mouse gestated or was pregnant (days); the number of pups born to each mated mouse; and the size and volume of the endometriotic lesions harvested from the mice after necropsy. Tissues were harvested from the mice, including endometriotic lesions and peritoneal walls to analyze the expression of proteins and genes of interest.

[3] = tested on: genes related to inflammation; assay: RNA sequencing and qPCR of endometriotic lesions; format: in vivo, mice; conditions: 3 weeks vs control
Method: The endometriotic lesions were screened by RNA sequencing for the expression of a variety of genes of interest. Total RNA was isolated from the lesions using the RNeasy mini kit (#74104, Qiagen). RNA quality was assessed, and RNA-sequencing (RNA-seq) were performed at the Functional Genomics Core Facility of University of Illinois. Briefly, the stranded RNA-seq libraries were prepared with IIlumina's TruSeq Stranded RNA Sample Prep kit (# RS-122-2201, Illumina). The libraries were pooled in equimolar concentration, and the pool was quantitated by qPCR and sequenced on one lane for 101 cycles on a HiSeq2500 (Illumina) using a HiSeq SBS sequencing kit (# FC-401-4002, Illumina). Fastq files were generated and demultiplexed with the bcl2fastq v1.8.4 Conversion Software (Illumina). Quantitative PCR (qPCR) was performed as described previously [Reardon, 2012]. The 5′-3′ sequences of the primer pairs (forward and reverse primer pairs) used to determine the presence of different genes are shown in Table 3. For each gene, the name of the gene, the accession number of the gene, the 5′-3′ sequence of the paired primers, and the length of the amplicon obtained is provided in Table 3. All experimental data were subjected to one-way ANOVA tests and the differences between individual means were tested by a Tukey multiple-range test using Prism 5.0 (GraphPad). qPCR data were tested by t-test using Prism 5.0. Tests of significance were performed using the appropriate error terms according to the expectation of the mean squares for error. […] Data are presented as mean with standard error of the mean (SEM).

[4] = tested on: PGR; assay: Immunohistochemistry of endometriotic lesions, PGR; format: in vivo, mice; conditions: 3 weeks; for % of PGR positive cells/total cells/0.007 mm^2, Stroma: control 47.2 ± 4.0; for % of PGR positive cells/total cells/0.007 mm^2, Epithelium: control 76.7 ± 7.0
Description: as §1, §2, §3, §4

[5] = tested on: rats; conditions: orally for 4 weeks; cited from earlier work

## O=C(Nc1ccc([N+](=O)[O-])cc1Cl)c1cc(Cl)ccc1O [niclosamide, 5-chloro-N-(2-chloro-4-nitrophenyl)-2-hydroxybenzamide]
[1]; 100 mg/kg b.w./day oral
  % of MKI67 positive cells/total cells/0.007 mm^2, Stroma: 10.9 ± 1.9%
[1]; 100 mg/kg b.w./day oral, control 61.6 ± 5.9, 100 mg/kg/day
  % of MKI67 positive cells/total cells/0.007 mm^2, Epithelium: 50.1±7.9%
[1]; 100 mg/kg b.w./day oral, control 61.6 ± 5.9, listed as Niclosamide, 100 mg/kg/day
  % of MKI67 positive cells/total cells/0.007 mm^2, Epithelium: 50.1 ± 7.9%
[1]; 200 mg/kg b.w./day oral
  % of MKI67 positive cells/total cells/0.007 mm^2, Stroma: 7.9 ± 1.9%
[1]; 200 mg/kg b.w./day oral, control 61.6 ± 5.9, p < 0.05, 200 mg/kg/day
  % of MKI67 positive cells/total cells/0.007 mm^2, Epithelium: 37.7±7.2%
[1]; 200 mg/kg b.w./day oral, control 61.6 ± 5.9, p < 0.05, listed as Niclosamide, 200 mg/kg/day
  % of MKI67 positive cells/total cells/0.007 mm^2, Epithelium: 37.7 ± 7.2 %
[2]
  lesion sizes on PND 21: maintained the reduction of lesion sizes
[3]; 200 mg/kg b.w./day
  Ccl17 level in the endometriotic lesions: increased
[3]; qPCR n=6-8, 200 mg/kg b.w./day
  expression of genes related to inflammation (Cxcl14, Lep, Lpo, Muc13, Trpc3 and Ptprz1) in the endometriotic lesions: significantly decreased
[3]; qPCR, 200 mg/kg b.w./day
  expression of Id4 and Wnt7a in treated lesions: reduced
[4]; 100 mg/kg b.w./day oral
  % of PGR positive cells/total cells/0.007 mm^2, Stroma: 58.1 ± 5.2%
  % of PGR positive cells/total cells/0.007 mm^2, Epithelium: 60.4 ± 10.7%
[4]; 200 mg/kg b.w./day oral
  % of PGR positive cells/total cells/0.007 mm^2, Stroma: 50.1 ± 6.9%
  % of PGR positive cells/total cells/0.007 mm^2, Epithelium: 69.9 ± 12.2%
[5]
  dose that elicits no adverse effects: up to 2000 mg/kg daily
